Data as given in the supplement of paper PMC10307832.

Legend:
Test in all cases: relative viability (nuclei count vs DMSO), 5 days (fraction); higher = more cells survive
NCI-H2085 = system: NCI-H2085
Summary of the method: (§1)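 The day after seeding in 1536-well plates, lung cancer cell lines were treated by pin tool with a single drug, or with a fixed anchor-drug dose together with five library-drug doses (not always all listed) in √10 steps. After 5 days, a combined fix-and-stain solution (final 0.05% Triton X-100, 1% formaldehyde, 1 ug/ml Hoechst) was added. Nuclei counted on 4× images gave relative viability as treated counts over vehicle counts, reported as the median of duplicate plates.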

NCI-H358 = system: NCI-H358
Summary of the method: as §1

NCI-H1755 = system: NCI-H1755
Summary of the method: as §1

NCI-H1563 = system: NCI-H1563
Summary of the method: as §1

NCI-H838 = system: NCI-H838
Summary of the method: as §1

CAL-12T = system: CAL-12T
Summary of the method: as §1

NCI-H1975 = system: NCI-H1975
Summary of the method: as §1

HCC-366 = system: HCC-366
Summary of the method: as §1

NCI-H1651 = system: NCI-H1651
Summary of the method: as §1

NCI-H1437 = system: NCI-H1437
Summary of the method: as §1

LOU-NH91 = system: LOU-NH91
Summary of the method: as §1

NCI-H1395 = system: NCI-H1395
Summary of the method: as §1

BEN = system: BEN
Summary of the method: as §1

HCC-44 = system: HCC-44
Summary of the method: as §1

NCI-H1355 = system: NCI-H1355
Summary of the method: as §1

NCI-H1650 = system: NCI-H1650
Summary of the method: as §1

EKVX = system: EKVX
Summary of the method: as §1

LU99A = system: LU99A
Summary of the method: as §1

NCI-H460 = system: NCI-H460
Summary of the method: as §1

NCI-H2023 = system: NCI-H2023
Summary of the method: as §1

NCI-H1734 = system: NCI-H1734
Summary of the method: as §1

Question: Which relative viability (NCI-H2085; first compound 0.08 µM) does the source give for `C=C1C(=O)O[C@@H](CCCCCCCC)[C@@H]1C(=O)O` [C-75] + CS(=O)(=O)CCNCc1ccc(-c2ccc3ncnc(Nc4ccc(OCc5cccc(F)c5)c(Cl)c4)c3c2)o1 [Lapatinib] (partner 2 µM) here?
Answer: 0.802

Question: What about the relative viability (NCI-H2085; first compound 0.253 µM) of the same molecule?
Answer: 0.867

Question: What about the relative viability (NCI-H2085; first compound 0.8 µM) of the same molecule?
Answer: 0.679

Question: What about the relative viability (NCI-H2085; first compound 2.53 µM) of the same molecule?
Answer: 0.671

Question: What about the relative viability (NCI-H2085; first compound 8 µM) of the same molecule?
Answer: 0.769

Question: And the relative viability (NCI-H358; first compound 0.08 µM)?
Answer: 0.588

Question: And the relative viability (NCI-H358; first compound 0.253 µM)?
Answer: 0.434

Question: What about the relative viability (NCI-H358; first compound 0.8 µM) of the same molecule?
Answer: 0.383

Question: And the relative viability (NCI-H358; first compound 2.53 µM)?
Answer: 0.458

Question: And the relative viability (NCI-H358; first compound 8 µM)?
Answer: 0.599

Question: What about the relative viability (NCI-H1755; first compound 0.08 µM) of the same molecule?
Answer: 1.01

Question: What about the relative viability (NCI-H1755; first compound 0.253 µM) of the same molecule?
Answer: 0.946

Question: And the relative viability (NCI-H1755; first compound 0.8 µM)?
Answer: 0.958

Question: And the relative viability (NCI-H1755; first compound 2.53 µM)?
Answer: 0.743

Question: And the relative viability (NCI-H1755; first compound 8 µM)?
Answer: 1.06

Question: What about the relative viability (NCI-H1563; first compound 0.08 µM) of the same molecule?
Answer: 0.886

Question: What about the relative viability (NCI-H1563; first compound 0.253 µM) of the same molecule?
Answer: 0.979

Question: What about the relative viability (NCI-H1563; first compound 0.8 µM) of the same molecule?
Answer: 0.881

Question: What about the relative viability (NCI-H1563; first compound 2.53 µM) of the same molecule?
Answer: 0.998

Question: What about the relative viability (NCI-H1563; first compound 8 µM) of the same molecule?
Answer: 1

Question: What about the relative viability (NCI-H838; first compound 0.08 µM) of the same molecule?
Answer: 1.01

Question: What about the relative viability (NCI-H838; first compound 0.253 µM) of the same molecule?
Answer: 0.726

Question: And the relative viability (NCI-H838; first compound 0.8 µM)?
Answer: 0.856

Question: What about the relative viability (NCI-H838; first compound 2.53 µM) of the same molecule?
Answer: 0.803

Question: And the relative viability (NCI-H838; first compound 8 µM)?
Answer: 0.876

Question: What about the relative viability (CAL-12T; first compound 0.08 µM) of the same molecule?
Answer: 0.673

Question: What about the relative viability (CAL-12T; first compound 0.253 µM) of the same molecule?
Answer: 0.863

Question: And the relative viability (CAL-12T; first compound 0.8 µM)?
Answer: 0.492

Question: And the relative viability (CAL-12T; first compound 2.53 µM)?
Answer: 0.604

Question: And the relative viability (CAL-12T; first compound 8 µM)?
Answer: 0.765

Question: And the relative viability (NCI-H1975; first compound 0.08 µM)?
Answer: 0.839

Question: And the relative viability (NCI-H1975; first compound 0.253 µM)?
Answer: 1.04

Question: What about the relative viability (NCI-H1975; first compound 0.8 µM) of the same molecule?
Answer: 0.76

Question: What about the relative viability (NCI-H1975; first compound 2.53 µM) of the same molecule?
Answer: 0.879

Question: What about the relative viability (NCI-H1975; first compound 8 µM) of the same molecule?
Answer: 0.895

Question: What about the relative viability (HCC-366; first compound 0.08 µM) of the same molecule?
Answer: 1.04

Question: And the relative viability (HCC-366; first compound 0.253 µM)?
Answer: 1.19

Question: And the relative viability (HCC-366; first compound 0.8 µM)?
Answer: 1

Question: What about the relative viability (HCC-366; first compound 8 µM) of the same molecule?
Answer: 0.872

Question: What about the relative viability (NCI-H1651; first compound 0.08 µM) of the same molecule?
Answer: 0.706

Question: And the relative viability (NCI-H1651; first compound 0.253 µM)?
Answer: 0.853

Question: And the relative viability (NCI-H1651; first compound 0.8 µM)?
Answer: 0.816

Question: And the relative viability (NCI-H1651; first compound 2.53 µM)?
Answer: 0.747

Question: What about the relative viability (NCI-H1651; first compound 8 µM) of the same molecule?
Answer: 0.81

Question: What about the relative viability (NCI-H1437; first compound 0.08 µM) of the same molecule?
Answer: 0.757

Question: And the relative viability (NCI-H1437; first compound 0.253 µM)?
Answer: 0.785

Question: And the relative viability (NCI-H1437; first compound 0.8 µM)?
Answer: 0.746

Question: And the relative viability (NCI-H1437; first compound 2.53 µM)?
Answer: 0.754

Question: What about the relative viability (NCI-H1437; first compound 8 µM) of the same molecule?
Answer: 0.712

Question: What about the relative viability (LOU-NH91; first compound 0.08 µM) of the same molecule?
Answer: 0.821

Question: What about the relative viability (LOU-NH91; first compound 0.253 µM) of the same molecule?
Answer: 0.833

Question: What about the relative viability (LOU-NH91; first compound 0.8 µM) of the same molecule?
Answer: 0.657

Question: And the relative viability (LOU-NH91; first compound 2.53 µM)?
Answer: 0.533

Question: What about the relative viability (LOU-NH91; first compound 8 µM) of the same molecule?
Answer: 0.716

Question: What about the relative viability (NCI-H1395; first compound 0.08 µM) of the same molecule?
Answer: 0.997

Question: And the relative viability (NCI-H1395; first compound 0.253 µM)?
Answer: 1.11

Question: And the relative viability (NCI-H1395; first compound 0.8 µM)?
Answer: 0.949

Question: And the relative viability (NCI-H1395; first compound 2.53 µM)?
Answer: 1.49

Question: What about the relative viability (NCI-H1395; first compound 8 µM) of the same molecule?
Answer: 1.06

Question: And the relative viability (BEN; first compound 0.08 µM)?
Answer: 0.793

Question: And the relative viability (BEN; first compound 0.253 µM)?
Answer: 0.785

Question: What about the relative viability (BEN; first compound 0.8 µM) of the same molecule?
Answer: 0.682

Question: And the relative viability (BEN; first compound 2.53 µM)?
Answer: 0.645

Question: What about the relative viability (BEN; first compound 8 µM) of the same molecule?
Answer: 0.694

Question: And the relative viability (HCC-44; first compound 0.08 µM)?
Answer: 0.943

Question: And the relative viability (HCC-44; first compound 0.253 µM)?
Answer: 0.963

Question: And the relative viability (HCC-44; first compound 0.8 µM)?
Answer: 0.943

Question: And the relative viability (HCC-44; first compound 2.53 µM)?
Answer: 0.946

Question: And the relative viability (HCC-44; first compound 8 µM)?
Answer: 0.962

Question: And the relative viability (NCI-H1355; first compound 0.08 µM)?
Answer: 0.939

Question: And the relative viability (NCI-H1355; first compound 0.253 µM)?
Answer: 1.08

Question: What about the relative viability (NCI-H1355; first compound 0.8 µM) of the same molecule?
Answer: 0.884

Question: And the relative viability (NCI-H1355; first compound 2.53 µM)?
Answer: 0.943

Question: And the relative viability (NCI-H1355; first compound 8 µM)?
Answer: 1.01

Question: And the relative viability (NCI-H1650; first compound 0.08 µM)?
Answer: 0.844

Question: And the relative viability (NCI-H1650; first compound 0.253 µM)?
Answer: 0.914

Question: And the relative viability (NCI-H1650; first compound 0.8 µM)?
Answer: 0.775

Question: What about the relative viability (NCI-H1650; first compound 2.53 µM) of the same molecule?
Answer: 0.963

Question: What about the relative viability (NCI-H1650; first compound 8 µM) of the same molecule?
Answer: 1.09

Question: What about the relative viability (EKVX; first compound 0.08 µM) of the same molecule?
Answer: 0.266

Question: What about the relative viability (EKVX; first compound 0.253 µM) of the same molecule?
Answer: 0.211

Question: What about the relative viability (EKVX; first compound 0.8 µM) of the same molecule?
Answer: 0.224

Question: And the relative viability (EKVX; first compound 2.53 µM)?
Answer: 0.184

Question: What about the relative viability (EKVX; first compound 8 µM) of the same molecule?
Answer: 0.214

Question: And the relative viability (LU99A; first compound 0.08 µM)?
Answer: 1.1

Question: And the relative viability (LU99A; first compound 0.253 µM)?
Answer: 0.959

Question: And the relative viability (LU99A; first compound 0.8 µM)?
Answer: 0.808

Question: What about the relative viability (LU99A; first compound 2.53 µM) of the same molecule?
Answer: 0.949

Question: What about the relative viability (LU99A; first compound 8 µM) of the same molecule?
Answer: 0.87

Question: What about the relative viability (NCI-H460; first compound 0.08 µM) of the same molecule?
Answer: 0.951

Question: What about the relative viability (NCI-H460; first compound 0.253 µM) of the same molecule?
Answer: 1.38

Question: What about the relative viability (NCI-H460; first compound 0.8 µM) of the same molecule?
Answer: 0.847

Question: What about the relative viability (NCI-H460; first compound 8 µM) of the same molecule?
Answer: 0.884

Question: And the relative viability (NCI-H2023; first compound 0.08 µM)?
Answer: 0.963

Question: And the relative viability (NCI-H2023; first compound 0.253 µM)?
Answer: 0.956

Question: And the relative viability (NCI-H2023; first compound 0.8 µM)?
Answer: 0.737

Question: And the relative viability (NCI-H2023; first compound 2.53 µM)?
Answer: 0.691

Question: What about the relative viability (NCI-H2023; first compound 8 µM) of the same molecule?
Answer: 0.653

Question: And the relative viability (NCI-H1734; first compound 0.08 µM)?
Answer: 0.981

Question: And the relative viability (NCI-H1734; first compound 0.253 µM)?
Answer: 1.13

Question: And the relative viability (NCI-H1734; first compound 0.8 µM)?
Answer: 1.02

Question: And the relative viability (NCI-H1734; first compound 2.53 µM)?
Answer: 0.362

Question: And the relative viability (NCI-H1734; first compound 8 µM)?
Answer: 0.908
